The values that follow come from patent publication EP1889617A1, “Triphenyl modified 5-membered heterocycles and their use as anticancer and antiflammatory agents” (Freie Universität Berlin, priority 2006, dated 2008).

In experiment [1] the test system is MCF-7 cells. The experiment in a line: Cytotoxic effects, concentration dependent test (IC50), crystal violet staining. Format: cell-based. The settings on record: Homo sapiens, MCF7; estrogen receptor positive MCF-7 cells; incubation of 72 h. The procedure:
(§1) The cytotoxic assay in estrogen receptor positive MCF-7 cells has been described previously by Ruenitz, P.C. et al. (1997) J. Steroid Biochem. Mol. Biol. 63, 203-209). Fiation, staining and quantitation of the cells were carried out according to Gillies (Gillies, R.J. et al. (1986) Anal. Biochem. 159, 109-113) and Kueng (Kueng, W. et al. (1989) Anal. Biochem. 182, 16-19). Moreover the test was carried out with estrogen receptor negative MD-MB 231 cells. MCF-7 cells (MDA-MB 231 cells) from an almost confluent monolayer were harvest by trypsinization and suspended to approximately 7 x 10^3 cells/mL (1 x 10^3 cells/mL). At the beginning of the experiment, the cell suspension was transferred to 96-well microplates (100 µL/well). After cultivating them for 3 days at growing conditions the medium was removed and replaced by one containing the test compounds. Control wells (16/plate) were contained 0.1% of DMSO, which was used for the preparation of the stock solutions. The initial cell density was determined by addition of glutaric dialdehyde (1 % in PBS; 100 µL/well). After incubation for 3-7 days, the medium was removed, and glutaric dialdehyde (1 % in PBS; 100 µL/well) was added for fixation. After 15 min, the solution of the aldehyde was decanted and 180 µL PBS/well added. The plates were stored at 4°C until staining. Cells were stained by treating them for 25 min with 100 µL of an aqueous solution of crystal violet (0.02%). After decanting cells were washed several times with water to remove the adherent dye. After addition of 180 µL of ethanol (70%), plates were gently shaken for 4 h. Optical density of each well was measured in a microplate autoreader at 590 nm.
(§2) MCF-7 cells (MDA-MB 231 cells) from an almost confluent monolayer were harvested by trypsinization and suspended to approximately 10 × 10^3 cells/mL (5 x 10^3 cells/mL). After cultivating them for 3 days at growing conditions the medium was removed and replaced by one containing the test compounds (control wells 8/plate). After incubation of 72 h (48 h) the medium was removed and the test was continued as descried above.

For experiment [2], the system named is MDA-MB 231 cells. Described as above. Format: cell-based. The settings on record: Homo sapiens; estrogen receptor negative MDA-MB 231 cells; incubation of 48 h. The procedure:
as §1, §2

In experiment [3] the target is T1, estrogen receptor (Homo sapiens, UniProt P03372).
T1 construct: endogenous in cells; host or cells: MCF-7
T1 sequence (P03372 1-595): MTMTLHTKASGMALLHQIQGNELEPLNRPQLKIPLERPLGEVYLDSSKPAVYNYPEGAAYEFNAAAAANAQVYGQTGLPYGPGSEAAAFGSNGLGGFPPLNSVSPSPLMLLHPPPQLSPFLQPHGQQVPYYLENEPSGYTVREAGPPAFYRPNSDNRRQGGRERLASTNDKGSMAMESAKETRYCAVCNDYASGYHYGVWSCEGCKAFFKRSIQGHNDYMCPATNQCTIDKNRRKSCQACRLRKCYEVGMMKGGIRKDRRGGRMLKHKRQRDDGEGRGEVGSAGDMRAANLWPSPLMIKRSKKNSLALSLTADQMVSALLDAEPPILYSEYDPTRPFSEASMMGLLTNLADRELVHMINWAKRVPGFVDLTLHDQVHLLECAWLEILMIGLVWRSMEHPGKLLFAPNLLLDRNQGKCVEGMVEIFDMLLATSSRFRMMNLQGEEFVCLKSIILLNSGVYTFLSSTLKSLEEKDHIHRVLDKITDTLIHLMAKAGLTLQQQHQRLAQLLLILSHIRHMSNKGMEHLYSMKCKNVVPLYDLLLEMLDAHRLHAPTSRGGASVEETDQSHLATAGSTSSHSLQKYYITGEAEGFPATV
Kind of experiment: Whole Cell Assay (WCA): competitive estrogen receptor binding against [3H]17β-estradiol. The settings on record: test compound 10^-6 M, 1 h incubation (37°C), percentage to a solvent treated control sample. On the procedure:
(§3) ER binding affinity is measured in competitive binding assays compared to estradiol. Binding affinity is expressed as a relative binding affinity (RBA) in percent compared to estradiol which is assigned an affinity of 100%. Substantial affinity for ER is indicated by an RBA of about 0,1% or more. Good affinity binding to ER is indicated by an RBA of about 1%- to about 10%. High affinity binding to ER is indicated by an RBA of about 10% or higher.
MCF-7 cells were plated in 24-well dishes (4 x 10^4 cells/well) and cultured for 48 h. After the incubation the medium was replaced by test compounds diluted in serum free medium containing [^3H]17β-Estradiol ([^3H]E2). Additional wells of each test compound concentration were filled with 500-fold excess of unlabeled E2 for nonspecific binding measurements. After 1 h incubation (37°C) the medium was removed and monolayer washed three times with an ice-cold saline solution. Bond E2 was then extracted from the monolayer with 1 mL ethanol at room temperature (20 min of incubation) and aliquots of 200 µL of ethanolic extracts were transferred to scintillation vials containing 3.8 mL scintillator Ecoscint H (National Diagnostic, Atlanta) for radioactivity counting. All measurements were performed in duplicate. Specific [^3H]E2 incorporation into the cells was calculated from the difference in incorporated radioactivity after incubation in the absence or presence of an excess of unlabeled E2. The results (relative radioactivity) were expressed as a percentage to a solvent treated control sample.

Experiment [4] addresses T2, recombinant human estrogen receptor (hERα) (Homo sapiens, UniProt P03372).
T2 construct: purchased Calbiochem
T2 sequence (P03372 1-595): T1 sequence (P03372 1-595)
Kind of experiment: Recombinant ERα (HAP Assay): competitive binding against [3H]E2 on hydroxylapatite. The settings on record: hERα adsorbed on hydroxylapatite; test compound 10^-6 M; overnight at 4°C; percentage to a solvent treated control sample. On the procedure: as §3
An ethanolic solution (250 fmol/µL) of recombinant human estrogen receptor (hERα) (Calbiochem) was diluted with Tris-HCl buffer pH 8.0 (1:100). This hERα preparations adsorbed on hydroxylapatite pellets (prepared in 10 mmol/L Tris HCl buffer pH 8.0) which were labeled with increasing concentrations of the test compound (10^-10 - 10^-5 M) and [^3H]E2 (0.1 %) in presence or absence of 200-fold excess of unlabeled E2 and were incubated overnight at 4°C. Bond [^3H]E2 were then successively extracted with ethanol and aliquots of 200 µL of ethanolic extracts were transferred to scintillation vials containing 3.8 mL scintillator Ecoscint H (National Diagnostic, Atlanta) for radioactivity counting. The data interpretation was carried out as shown above.

By IC50 is commonly meant the point on the concentration scale where inhibition reaches its midpoint. A higher IC50 goes with a need for much substance.

Take `COc1ccc(-c2cc(-c3ccc(OC)cc3)c(-c3ccc(OC)cc3Cl)[nH]2)cc1` [Example 1, 2-(2-Chloro-4-methoxyphenyl)-3,5-bis(4-methoxyphenyl)-1H-pyrrole]: the IC50 in experiment [1] was 17.7 µM; in experiment [2], 27.4 µM.
For the molecule `COc1ccc(-c2cc(-c3ccc(OC)cc3Cl)[nH]c2-c2ccc(OC)cc2)cc1` [Example 2, 5-(2-Chloro-4-methoxyphenyl)-2,3-bis(4-methoxyphenyl)-1H-pyrrole], the IC50 in experiment [1] worked out at 9.5 µM; in experiment [2] it was 10.3 µM.
As for `Oc1ccc(-c2cc(-c3ccc(O)cc3)c(-c3ccc(O)cc3Cl)[nH]2)cc1` [Example 7, 2-(2-Chloro-4-hydroxyphenyl)-3,5-bis(4-hydroxyphenyl)-1H-pyrrole], the “Relative radioactivity of labeled [^3H]E2; RBA-value MCF-7 cells (WCA); 10^-6 M” value (“Relative radioactivity … (WCA); 10^-6 M” below) in experiment [3] is recorded as 35.3 ± 4.9%. Also, the “Relative radioactivity of labeled [^3H]E2; RBA-value HAP-Assay; 10^-6 M” value in experiment [4] was found to be 26.4 ± 8.3%. The IC50 in experiment [1] was determined as 16.4 µM; in experiment [2] it was 13.5 µM.
For `Oc1ccc(-c2cc(-c3ccc(O)cc3Cl)[nH]c2-c2ccc(O)cc2Cl)cc1` [Example 9, 2,5-Bis(2-chloro-4-hydroxyphenyl)-3-(4-hydroxyphenyl)-1H-pyrrole], in that order: 13.1 ± 3.2%, 19.1 ± 1.5%, 7.6 µM and 13.4 µM.
With `Oc1ccc(-c2cc(-c3ccc(O)cc3)c(-c3ccc(Cl)cc3O)[nH]2)cc1` [Example 10, 2-(4-Chloro-2-hydroxyphenyl)-3,5-bis(4-hydroxyphenyl)-1H-pyrrole], the IC50 in experiment [1] was 9.2 µM; in experiment [2], 18.8 µM.
Take `Oc1ccc(-c2cc(-c3ccc(O)cc3Cl)[nH]c2-c2ccc(Cl)cc2O)cc1` [Example 11, 5-(2-Chloro-4-hydroxyphenyl)-2-(4-chloro-2-hydroxyphenyl)-3-(4-hydroxyphenyl)-1H-pyrrole]: the IC50 in experiment [1] was 10.5 µM; in experiment [2] it was 14 µM.
Consider `CCCc1c(-c2ccc(Cl)cc2O)[nH]c(-c2ccc(O)cc2)c1-c1ccc(O)cc1` [Example 12, 2-(4-Chloro-2-hydroxyphenyl)-4,5-bis(4-hydroxyphenyl)-3-propyl-1H-pyrrole], for which the “Relative radioactivity … (WCA); 10^-6 M” value in experiment [3] is 78.1 ± 4.4%. Also, the “Relative radioactivity of labeled [^3H]E2; RBA-value HAP-Assay; 10^-6 M” value in experiment [4] is reported as 70.3 ± 6.1%. Also, the values for the IC50 in experiment [1] and in experiment [2] were 8.1 µM and 6.5 µM, respectively.
With `COc1ccc(-c2cc(-c3ccc(OC)cc3Cl)c(C)n2-c2ccc(OC)cc2)cc1` [Example 13, 4-(2-Chloro-4-methoxyphenyl)-1,2-bis(4-methoxyphenyl)-5-methyl-1H-pyrrole], the IC50 in experiment [1] turned out to be 23.6 µM; in experiment [2] it was 20.3 µM.
For `COc1ccc(-c2cc(-c3ccc(OC)cc3Cl)c(CC(C)C)n2-c2ccc(OC)cc2)cc1` [Example 16, 4-(2-Chloro-4-methoxyphenyl)-5-isobutyl-1,2-bis(4-methoxyphenyl)-1H-pyrrole], in that order: 18 µM and 15.2 µM.
For `CCCc1c(-c2ccc(OC)cc2F)cc(-c2ccc(OC)cc2)n1-c1ccc(OC)cc1` [Example 17, 4-(2-Fluoro-4-methoxyphenyl)-1,2-bis(4-methoxyphenyl)-5-propyl-1H-pyrrole], in that order: 17.8 µM and 18.4 µM.
For `Cc1c(-c2ccc(O)cc2Cl)cc(-c2ccc(O)cc2)n1-c1ccc(O)cc1` [Example 18, 4-(2-Chloro-4-hydroxyphenyl)-1,2-bis(4-hydroxyphenyl)-5-methyl-1H-pyrrole], in that order: 23.4 µM and 17.4 µM.
On to `CCc1c(-c2ccc(O)cc2Cl)cc(-c2ccc(O)cc2)n1-c1ccc(O)cc1` [Example 19, 4-(2-Chloro-4-hydroxyphenyl)-5-ethyl-1,2-bis(4-hydroxyphenyl)-1H-pyrrole], for which the “Relative radioactivity … (WCA); 10^-6 M” value in experiment [3] amounted to 41.2 ± 8.3%. Also, the “Relative radioactivity of labeled [^3H]E2; RBA-value HAP-Assay; 10^-6 M” value in experiment [4] was found to be 30.1 ± 5.1%. Moreover, the figures for the IC50 in experiment [1] and in experiment [2] were 17.8 µM and 18.4 µM, respectively.
As to `CCCc1c(-c2ccc(O)cc2Cl)cc(-c2ccc(O)cc2)n1-c1ccc(O)cc1` [Example 20, 4-(2-Chloro-4-hydroxyphenyl)-1,2-bis(4-hydroxyphenyl)-5-propyl-1H-pyrrole], the concentration for half-maximal inhibition (IC50) amounted to 19.5 µM in experiment [1] and 16.2 µM in experiment [2].
Taken in the same sequence, the figures for `CC(C)Cc1c(-c2ccc(O)cc2Cl)cc(-c2ccc(O)cc2)n1-c1ccc(O)cc1` [Example 21, 4-(2-Chloro-4-hydroxyphenyl)-5-isobutyl-1,2-bis(4-hydroxyphenyl)-1H-pyrrole] were 15.2 µM and 16.1 µM.
